BigSolDB 2.1

CC1(N=C(O)c2ccccc2)CCC2CC1C(c1ccccc1)=[NH+]C2(C)C.[O-][Cl+3]([O-])([O-])[O-] (stereo not given)
solubility (mole fraction)
Conditions	298.15 K	303.15 K	308.15 K	313.15 K	318.15 K
in 2-ethoxyethanol	0.00256	0.00297	0.00348	0.0041	0.0048
in acetone	0.00275	0.00308	0.00363	0.00425	0.00495
in acetonitrile	0.00307	0.0035	0.00421	0.00488	0.00572
in acrylonitrile	0.00592	0.00661	0.00743	0.00856	0.0104
in ethanol	0.0015	0.00182	0.00223	0.00264	0.00316
in isopropanol	0.000845	0.00103	0.00132	0.00163	0.00199
in methanol	0.00289	0.00327	0.0038	0.00445	0.00534
in n-butanol	0.000928	0.00113	0.00146	0.00178	0.00221
in n-propanol	0.0013	0.0016	0.00193	0.00232	0.00288
in propionitrile	0.00186	0.00215	0.00254	0.00305	0.00346
in propylene glycol	0.0122	0.0132	0.0147	0.0164	0.0187
in water	3.8e-05	5.7e-05	7.7e-05	9.9e-05	0.000115

CC(=O)NC1(C)CCC2CC1C(C)=NC2(C)C (stereo not given)
solubility (mole fraction)
Conditions	298.15 K	303.15 K	308.15 K	313.15 K	318.15 K
in 2-ethoxyethanol	0.00185	0.00217	0.00248	0.00282	0.00322
in acetone	0.00359	0.00388	0.00411	0.00445	0.00493
in acetonitrile	0.0257	0.0265	0.0275	0.0292	0.0305
in acrylonitrile	0.00442	0.00458	0.00487	0.00528	0.00581
in ethanol	0.00153	0.00184	0.00211	0.00244	0.00284
in isopropanol	0.00134	0.00155	0.00182	0.00214	0.00243
in methanol	0.00945	0.0103	0.0111	0.0122	0.0142
in n-butanol	0.00138	0.00164	0.00191	0.00219	0.00257
in n-propanol	0.00144	0.00171	0.00196	0.00228	0.00264
in propionitrile	0.00392	0.00416	0.0044	0.00477	0.00526
in propylene glycol	0.0197	0.0206	0.022	0.0232	0.0251
in water	0.0012	0.00142	0.0016	0.00182	0.0021
